pIC50: −log10 of the molar value.
Molecular target: T1, Src kinase (Homo sapiens, UniProt P12931)
T1 construct: purchased Upstate Bioteolnology (sic; Upstate Biotechnology); later HMR stock 27597-019E1 #14-117
Assay: Phosphorylation assay of Src kinase inhibitors (radiometric, 96 well filter plate)
Type: biochemical
Conditions: duplicates, tested in the range of 400-0.098 µM; 10 µM peptide substrate (FIYGAFKKKKNH2), 5 µM unlabeled ATP, room temperature 30 min; read-out: IC50
Procedure: The present invention provides novel compounds of Formulae I through XVIII discussed above. The following compounds which fall within Formulae I through XVIII are characterized by structure, IUPAC name and activity using phosphorylation assay for protein tyrosine Src kinase.
Phosphorylation Assay of Src Kinase Inhibitors
The activity of Src kinase was measured in a 96 well plate phosphorylation assay where the transfer of gamma phosphate from ATP to peptide substrate was measured radiometrically. […] Ki values were determined experimentally for some of the inhibitors. The phosphocellulose filter plates (Millipore catalog #MAPH NOB) were prewet prior to the phosphorylation assay by addition of 100 1 per well of 30 mM MES buffer+0.4 mg/ml BSA. After a 20-minute incubation, the buffer was removed completely via a Millipore vacuum manifold. The phosphorylation assay was then set up in the filter plates in a total volume per well of 60 1. The 60 1 consisted of compound (see concentration ranges above), a 1:100 dilution of Src kinase (originally Upstate Bioteolnology, #14-117; later HMR stock 27597-019E1) or assay buffer alone (for no enzyme control wells), 10 M peptide substrate (FIYGAFKKKKNH2), 5 M unlabeled ATP and a 1:500 dilution of P-ATP (New England Nuclear, catalog #NEG-602H, 2000 Ci/mmol). The reaction was mixed and incubated at room temperature for 30 min. The kinase reactions were stopped by addition of 150 mM H3PO4 and incubated for 10 minutes. The filter plate wells were filtered and washed seven times with 200 1 per well of 150 mM H3PO4. Finally, the filter plate was placed into a Packard plate adapter (Packard catalog #600517B), 35 1 of Microscint-20 (Packard catalog #6013621) was added to each well, the plate was sealed (TopSeal A sealers; Packard catalog #6005185) and counted on a Packard TopCount.

T1 sequence (P12931 whole entry): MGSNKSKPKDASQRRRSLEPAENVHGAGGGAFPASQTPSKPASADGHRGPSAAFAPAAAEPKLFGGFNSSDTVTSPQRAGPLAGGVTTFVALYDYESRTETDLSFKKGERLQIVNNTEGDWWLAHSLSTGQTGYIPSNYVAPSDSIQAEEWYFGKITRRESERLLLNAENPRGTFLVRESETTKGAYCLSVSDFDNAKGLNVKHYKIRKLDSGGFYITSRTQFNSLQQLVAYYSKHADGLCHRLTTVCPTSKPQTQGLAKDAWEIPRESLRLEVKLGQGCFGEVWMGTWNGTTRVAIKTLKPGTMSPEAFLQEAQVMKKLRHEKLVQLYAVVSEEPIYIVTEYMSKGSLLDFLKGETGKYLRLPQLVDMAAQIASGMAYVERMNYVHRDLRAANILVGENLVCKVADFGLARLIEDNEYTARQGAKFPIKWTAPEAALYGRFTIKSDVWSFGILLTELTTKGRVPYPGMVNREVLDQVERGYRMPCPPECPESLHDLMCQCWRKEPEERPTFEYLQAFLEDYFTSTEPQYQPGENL

## NC(=O)CNC(=O)c1cc2ccccc2cc1OCCCCNC(=O)[C@H](Cc1ccc(O)cc1)NC(=O)OCc1ccccc1 [Example 18, 3-[4-[[2(S)-(N-BENZYLOXY- CARBONYL)AMINO-3-(4-HYDROXY- PHENYL)-1-OXOPROPYL]AMINO]- BUTOXY]-NAPHTHALENE-2-[N-(2- AMIDOMETHYL)]CARBOXAMIDE]
  pIC50: 4.49

## CCC(C)[C@H](N)C(=O)NC(Cc1ccc(O)cc1)C(=O)NCCCCOc1cc2ccccc2cc1C(=O)NCC(N)=O (some centres unmarked) [Example 19]
  pIC50: 4.92

## NC(=O)CNC(=O)c1cc2ccccc2cc1OCCCCNC(=O)C1Cc2ccc(O)cc2CN1 (centres unmarked) [Example 20, 3-[N-[[(7-HYDROXY)-1,2,3,4-TETRA- HYDROISOQUINOLIN-3-YL]- CARBONYL]AMINO]BUTOXY]- NAPHTHALENE-2-[N-(2- AMIDOMETHYL)]CARBOXAMIDE]
  pIC50: 5.42

## NC(=O)CNC(=O)c1cc2ccccc2cc1OCCCCNC(=O)C1NCCC1c1ccc(O)cc1 [Example 21, 3-[N-[[[(3-(R)4-HYDROXYPHENYL)- TETRAHYDROPYRROL-2-YL]- CARBONYL]AMINO]BUTOXY]- NAPHTHALENE-2-[N-(2- AMIDOMETHYL)]CARBOXAMIDE]
  pIC50: 5.34

## NC(=O)CNC(=O)c1cc2ccccc2cc1OCCCCNC(=O)C1NCCC1c1ccc(O)cc1 [Example 22, 3-[N-[[[(3-(S)4-HYDROXYPHENYL)- TETRAHYDROPYRROL-2-YL]- CARBONYL]AMINO]BUTOXY]- NAPHTHALENE-2-[N-(2- AMIDOMETHYL)]CARBOXAMIDE]
  pIC50: 4.96

## NCCCCOc1cc2ccccc2cc1C(=O)NCC(N)=O [Example 26, 3-(4-AMINOBUTOXY)-NAPHTHALENE- 2-[N-ACETAMIDO]CARBOXAMIDE]
  pIC50: 4.60

## NC(=O)CNC(=O)c1cc2ccccc2cc1NC(=O)CCCNC(=O)[C@@H](N)Cc1ccc(O)cc1 [Example 34, 3-[[[[[[2(S)-AMINO-3-(4-HYDROXY- PHENYL)-1-OXO]PROPYL]AMINO]- PROPYL]CARBONYL] AMINO]- NAPHTHALENE-2-(N-ACETAMIDO)- CARBOXAMIDE]
  pIC50: 3.60

## NC(=O)CNC(=O)c1cc2ccccc2cc1NC(=O)CCCCNC(=O)[C@@H](N)Cc1ccc(O)cc1 [Example 35, 3-[[[[[[2(S)-AMINO-3-(4-HYDROXY- PHENYL)-1-OXO]PROPYL]AMINO]- BUTYL]CARBONYL] AMINO]- NAPHTHALENE-2-(N- ACETAMIDO)CARBOXAMIDE]
  pIC50: 3.68

## NC(=O)CNC(=O)c1cc2ccccc2cc1OCCCCNC(=O)[C@@H](N)CCc1ccccc1 [Example 36, 3-[[4-[(2(S)-AMINO-3-(BENZYL-1- OXO)PROPYL]AMINO]BUTOXY]- NAPHTHALENE-2-(N- ACETAMIDO)CARBOXAMIDE]
  pIC50: 5.10

## NC(=O)CNC(=O)c1cc2ccccc2cc1OCCCCNC(=O)[C@@H](N)c1ccccc1 [Example 37, 3-[[4-[(2(S)-AMINO-2-PHENYL-1- OXO)ETHYL]AMINO]BUTOXY]- NAPHTHALENE-2-(N- ACETAMIDO)CARBOXAMIDE]
  pIC50: 5.48

## NC(=O)CNC(=O)c1cc2ccccc2cc1OCCCCNC(=O)[C@@H](N)Cc1ccc(-c2ccccc2)cc1 [Example 38, 3-[[4-[[2(S)-AMINO-3-(BIPHEN-1-YL)-1- OXO]PROPYL]AMINO]BUTOXY]- NAPHTHALENE-2-(N- ACETAMIDO)CARBOXAMIDE]
  pIC50: 4.52

## NC(=O)CNC(=O)c1cc2ccccc2cc1OCCCCNC(=O)[C@@H](N)C(c1ccccc1)c1ccccc1 [Example 39, 3-[[4-[(2(S)-AMINO-3,3-BISPHENYL-1- OXO)PROPYL]AMINO]BUTOXY]- NAPHTHALENE-2-(N-ACETAMIDO)- CARBOXAMIDE]
  pIC50: 5.77

## NC(=O)CNC(=O)c1cc2ccccc2cc1OCCCCNC(=O)C1(N)Cc2ccccc2C1 [Example 40, 3-[4-[n-[1-OXO-2-(2-AMINOINDAN-2- YL)]ETHYL]-AMINOBUTOXY]- NAPHTHALENE-2-(N- ACETAMIDO)CARBOXAMIDE]
  pIC50: 4.92

## NC(=O)CNC(=O)c1cc2ccccc2cc1OCCCCNC(=O)[C@@H](N)Cc1ccc(F)cc1 [Example 41, 3-[[4-[[2(S)-AMINO-3-(4-FLUORO- PHENYL)-1-OXO]PROPYL]AMINO]- BUTOXY]-NAPHTHALENE-2- (N-ACETAMIDO)CARBOXAMIDE]
  pIC50: 6.51

Reference: patent US20040014676A1, “SRC kinase inhibitors useful for treating osteoporosis” (priority 2001, published 2004)
